Source: PubChem BioAssay AID651630 (Sanford-Burnham Center for Chemical Genomics, 2012)
Active and inactive are the calls of the source.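 How the source made its calls: active means lipid-stain IC50 at or below a set limit, with nuclear-stain toxicity IC50 at least five times higher; inactive means the rest.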

Tests used:
[1] = tested on: DAPI; experiment: TAG lipid buildup inhibition with viability readout – cell-based, panel, Nile Red and DAPI fluorescence, H9c2, dose response (AID 651630); conditions: H9c2 cells, DAPI nuclear fluorescence (cytotoxicity counter-readout), oleic acid;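 further: cells exposed to compound overnight before fixation and staining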
[2] = tested on: TAG; experiment: as above; conditions: H9c2 cells, Nile Red TAG fluorescence, oleic acid

Row | Structure (SMILES) | IC50 cytotoxicity (DAPI nuclear signal decrease) ([1]; mean of runs) | IC50 cytotoxicity (DAPI nuclear signal decrease) ([1]; run 1) [µM] | IC50 cytotoxicity (DAPI nuclear signal decrease) ([1]; run 2) [µM] | IC50 ([2]; mean of runs) | IC50 ([2]; run 1) [µM] | IC50 ([2]; run 2) [µM]
1 | CCOc1c(Br)cc(CNC2CCCCCCC2)cc1OC | 19.7 µM (inactive) | 18.8 | 20.6 | > 25 µM (inactive) | > 25 | > 25
2 | O=C(Nc1ccc([N+](=O)[O-])cn1)c1cc(-c2cccc(Cl)c2)nc2ccccc12 |  | > 25 | > 25 | 3.69 µM | 3.93 | 3.46
3 | CC(C)C[C@H](CO)N(Cc1ccccc1)S(=O)(=O)N(Cc1ccccc1)[C@@H](CO)CC(C)C | > 25 µM (inactive) | > 25 | > 25 |  | 9.64 | > 25
4 | CCCCCOc1ccc(NC(=O)CSc2cccc3cccnc23)cc1 | > 25 µM (inactive) | > 25 | > 25 | > 25 µM (inactive) | > 25 | > 25
5 | COc1cc(-c2cnc3c(NC=O)cc(-c4cccnc4)cn23)cc(OC)c1OC | > 25 µM (inactive) | > 25 | > 25 | 15.8 µM (inactive) | 14.5 | 17
6 | CCCc1[nH]n(-c2ccc([N+](=O)[O-])cc2)c(=O)c1C=NCCc1c[nH]c2ccccc12 | > 25 µM (inactive) | > 25 | > 25 | 11.9 µM | 10.3 | 13.6
7 | Cc1cccc2cc(C#N)c(SCC(=O)NNC(=O)Cc3ccccc3)nc12 | > 25 µM (inactive) | > 25 | > 25 | > 25 µM (inactive) | > 25 | > 25
8 | CN(C)CCNC(=O)c1cccc(-c2cnc3c(NC=O)cc(-c4cccc(C(F)(F)F)c4)cn23)c1 | > 25 µM (inactive) | > 25 | > 25 | > 25 µM (inactive) | > 25 | > 25
9 | COc1cc(-c2nc3c(c(C)nn3-c3ccccc3)c3cc(OC)c(OC)cc23)ccc1O | > 25 µM (inactive) | > 25 | > 25 | > 25 µM (inactive) | > 25 | > 25
10 | CCOc1ccc(CCNC(=O)c2cc3sc(Cl)cc3n2C)cc1OCC | > 25 µM (inactive) | > 25 | > 25 | 5.75 µM | 7.67 | 3.82
11 | Cc1ccc(-c2nc(NC(=O)c3cc(C(C)(C)C)nn3C)sc2C)cc1Cl | 21.1 µM (inactive) | 20.2 | 22 | 5.56 µM | 6.38 | 4.74
12 | CCOc1ccc(C(=O)Nc2nnc(NC(=S)Nc3ccccc3)s2)cc1 | > 25 µM (inactive) | > 25 | > 25 |  | > 25 | 23
13 | COc1cc(C2C3=C(COC3=O)Oc3cc4c(cc32)OCO4)ccc1O (configuration not stated) | > 25 µM (inactive) | > 25 | > 25 | 15.6 µM (inactive) | 14.9 | 16.2
14 | CC1(c2ccccc2)CC(C)(C)N(C(=O)c2cc([N+](=O)[O-])cc([N+](=O)[O-])c2)c2ccccc21 (configuration not stated) | > 25 µM (inactive) | > 25 | > 25 | 9.21 µM | 10.4 | 7.99
15 | Cc1cc(NC(=O)c2cc(-c3ccncc3)nc3c(C)cccc23)no1 | > 25 µM (inactive) | > 25 | > 25 | 11.5 µM | 10.5 | 12.5
16 | CCOC(=O)C(C)Oc1cccc2c(=O)n(CC(=O)NCc3ccc4c(c3)OCO4)ccc12 (configuration not stated) | > 25 µM (inactive) | > 25 | > 25 | 18 µM (inactive) | 18.2 | 17.9
17 | O=C(Nc1ccc(-c2csc(Nc3cccc(C(F)(F)F)c3)n2)cc1)c1cccc(C(F)(F)F)c1 | > 25 µM (inactive) | > 25 | > 25 | 6.44 µM | 5.94 | 6.94

Row | Structure (SMILES) | IC50 cytotoxicity (DAPI nuclear signal decrease) ([1]; mean of runs) | IC50 cytotoxicity (DAPI nuclear signal decrease) ([1]; run 1) [µM] | IC50 cytotoxicity (DAPI nuclear signal decrease) ([1]; run 2) [µM] | IC50 ([2]; mean of runs) | IC50 ([2]; run 1) [µM] | IC50 ([2]; run 2) [µM]
18 | COc1ccccc1C1C2=C(COC2=O)Nc2cc3c(cc21)OCO3 (configuration not stated) | > 25 µM (inactive) | > 25 | > 25 |  | < 0.78 | > 25
19 | C#CCN(C[C@H]1[C@H](OC(=O)NCCCCCC)[C@H](OC(=O)NCCCCCC)C[C@@H](C(=O)OC)[C@H]1C(=O)OC)S(=O)(=O)c1ccc(C)cc1 |  | > 25 | > 25 | 4.91 µM | 4.31 | 5.5
20 | N#CC1=C(N)Oc2cc(Nc3ccccc3)ccc2C1c1ccncc1 (configuration not stated) |  | 23.2 | > 25 |  | 19.8 | > 25
21 | COc1ccc(-c2cnc3c(NC=O)cc(-c4cccc(NS(C)(=O)=O)c4)cn23)cc1OC | 21.6 µM (inactive) | 20.1 | 23 | 13.1 µM | 12.8 | 13.3
22 | Cc1ccc2nc(NC(=O)CN(C)S(=O)(=O)c3cccc4nsnc34)sc2c1 | > 25 µM (inactive) | > 25 | > 25 | 10.5 µM | 11.1 | 9.95
23 | Cc1ccc(-c2cc(C(F)F)n3ncc(C(=O)Nc4c(C)nn(Cc5c(Cl)cccc5Cl)c4C)c3n2)cc1 | > 25 µM (inactive) | > 25 | > 25 | > 25 µM (inactive) | > 25 | > 25
24 | O=C(NCCCCCCCN1CCCCCCC1)C(C1CCCCC1)C1CCCCC1 | > 25 µM (inactive) | > 25 | > 25 | 17.8 µM (inactive) | 15.9 | 19.7
25 | COc1ccc(-c2cc3nc(-c4ccccc4)cc(N4CCN(C(=O)c5ccccc5)CC4)n3n2)cc1 | > 25 µM (inactive) | > 25 | > 25 | > 25 µM (inactive) | > 25 | > 25
26 | O=C(Nc1cc2c3c(c1)C1CCCC1CN3CC1CCCC21)c1ccc([N+](=O)[O-])cc1 (configuration not stated) | > 25 µM (inactive) | > 25 | > 25 | 12.3 µM | 11.3 | 13.2
27 | O=C(Nc1ccc(-c2csc(Nc3cccc(C(F)(F)F)c3)n2)cc1)c1ccccc1 | > 25 µM (inactive) | > 25 | > 25 |  | 22.3 | > 25
28 | O=C(/C=C/c1ccc(OCCCF)cc1)NCc1ccc(Cl)c(Cl)c1 | > 25 µM (inactive) | > 25 | > 25 |  | > 25 | 21.3
29 | CCOc1ccccc1C1C2=C(COC2=O)Nc2cc3c(cc21)OCO3 (configuration not stated) | > 25 µM (inactive) | > 25 | > 25 |  | > 25 | < 0.78
30 | COc1ccc(/C=C2/CCCc3ccccc3C2=O)cc1 | > 25 µM (inactive) | > 25 | > 25 | > 25 µM (inactive) | > 25 | > 25
31 | O=C(Nc1cccc(Cl)c1)c1nc[nH]c1C(=O)NCCCNC(=O)c1[nH]cnc1C(=O)Nc1cccc(Cl)c1 | > 25 µM (inactive) | > 25 | > 25 |  | 9.63 | > 25
32 | COc1cccc(-c2nc(-c3ccc(NC(=O)Cc4ccccc4OC)cc3)no2)c1 |  | > 25 | > 25 | 4.52 µM | 3.4 | 5.64
33 | COCCN(Cc1ccccc1)C(=O)C1CCN(C(=O)Nc2ccccc2)CC1 | > 25 µM (inactive) | > 25 | > 25 | > 25 µM (inactive) | > 25 | > 25
34 | CN=C1c2cc3cc(OC)ccc3n2CCN1Cc1ccccc1 | > 25 µM (inactive) | > 25 | > 25 | 10.6 µM | 9.62 | 11.7
